Data as given in ChEMBL document CHEMBL1201862, “PubChem BioAssay data set” (2004).
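Protocol summary: plate cells (96-well), add compound at 5 concentrations, incubate 48 h, interpolate endpoints linearly. GI50 marks 50% less growth.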 Calls of active or inactive are those of the source. Cut-off read from the data, not from the text of the source: active = GI50 up to about 1.1 µM and inactive = higher.

Legend:
Test in all cases: DTP human tumour cell line panel, 48 h
[1] = system: HCT-15
[2] = system: MDA-MB-231
[3] = system: HCT-116
[4] = system: UACC-257
[5] = system: MCF7
[6] = system: TK-10
[7] = system: SF-295
[8] = system: HT-29
[9] = system: SF-268
[10] = system: NCI/ADR-RES
[11] = system: NCI-H23
[12] = system: PC-3
[13] = system: Hs-578T
[14] = system: A498
[15] = system: CCRF-CEM
[16] = system: SK-MEL-28
[17] = system: SN12C
[18] = system: MDA-N
[19] = system: NCI-H522
[20] = system: 786-0
[21] = system: U-251
[22] = system: OVCAR-5
[23] = system: RXF 393
[24] = system: A549
[25] = system: KM12
[26] = system: Malme-3M
[27] = system: SK-MEL-5
[28] = system: CAKI-1
[29] = system: SW-620
[30] = system: COLO 205
[31] = system: OVCAR-4
[32] = system: SK-MEL-2
[33] = system: OVCAR-8
[34] = system: LOX IMVI
[35] = system: IGROV-1
[36] = system: M14
[37] = system: UACC-62
[38] = system: DU-145
[39] = system: HOP-62
[40] = system: SNB-75
[41] = system: ACHN
[42] = system: NCI-H226
[43] = system: MOLT-4
[44] = system: T47D
[45] = system: EKVX
[46] = system: UO-31
[47] = system: SNB-19
[48] = system: SK-OV-3
[49] = system: MDA-MB-435
[50] = system: SF-539
[51] = system: HL-60
[52] = system: BT-549
[53] = system: OVCAR-3
[54] = system: HCC 2998
[55] = system: K562
[56] = system: HOP-92
[57] = system: RPMI-8226
[58] = system: NCI-H460

Q: With `CNc1ccc(N)cc1C(=O)N1CCC[C@H]1CO` as the compound, how does the GI50 [1] read?
A: > 100 µM

Q: And the GI50 [2]?
A: > 100 µM (inactive)

Q: And the GI50 [3]?
A: > 100 µM (inactive)

Q: And the GI50 [4]?
A: > 100 µM (inactive)

Q: And the GI50 [5]?
A: > 100 µM (inactive)

Q: And the GI50 [6]?
A: > 100 µM (inactive)

Q: What about the GI50 [7] of the same compound?
A: > 100 µM (inactive)

Q: And the GI50 [8]?
A: > 100 µM (inactive)

Q: And the GI50 [9]?
A: > 100 µM (inactive)

Q: And the GI50 [10]?
A: > 100 µM (inactive)

Q: And the GI50 [11]?
A: > 100 µM (inactive)

Q: And the GI50 [12]?
A: > 100 µM (inactive)

Q: What about the GI50 [13] of the same compound?
A: > 100 µM (inactive)

Q: And the GI50 [14]?
A: > 100 µM (inactive)

Q: And the GI50 [15]?
A: > 100 µM (inactive)

Q: And the GI50 [16]?
A: > 100 µM (inactive)

Q: What about the GI50 [17] of the same compound?
A: > 100 µM (inactive)

Q: What about the GI50 [18] of the same compound?
A: > 100 µM (inactive)

Q: And the GI50 [19]?
A: > 100 µM (inactive)

Q: What about the GI50 [20] of the same compound?
A: > 100 µM (inactive)

Q: What about the GI50 [21] of the same compound?
A: > 100 µM (inactive)

Q: And the GI50 [22]?
A: > 100 µM (inactive)

Q: What about the GI50 [23] of the same compound?
A: > 100 µM (inactive)

Q: And the GI50 [24]?
A: > 100 µM (inactive)

Q: And the GI50 [25]?
A: > 100 µM (inactive)

Q: What about the GI50 [26] of the same compound?
A: > 100 µM (inactive)

Q: And the GI50 [27]?
A: > 100 µM (inactive)

Q: What about the GI50 [28] of the same compound?
A: > 100 µM (inactive)

Q: And the GI50 [29]?
A: > 100 µM (inactive)

Q: And the GI50 [30]?
A: > 100 µM (inactive)

Q: What about the GI50 [31] of the same compound?
A: > 100 µM (inactive)

Q: And the GI50 [32]?
A: > 100 µM (inactive)

Q: What about the GI50 [33] of the same compound?
A: > 100 µM (inactive)

Q: What about the GI50 [34] of the same compound?
A: > 100 µM (inactive)

Q: And the GI50 [35]?
A: > 100 µM (inactive)

Q: What about the GI50 [36] of the same compound?
A: > 100 µM (inactive)

Q: What about the GI50 [37] of the same compound?
A: > 100 µM (inactive)

Q: And the GI50 [38]?
A: > 100 µM (inactive)

Q: And the GI50 [39]?
A: > 100 µM (inactive)

Q: What about the GI50 [40] of the same compound?
A: > 100 µM (inactive)

Q: And the GI50 [41]?
A: > 100 µM (inactive)

Q: And the GI50 [42]?
A: > 100 µM (inactive)

Q: And the GI50 [43]?
A: > 100 µM (inactive)

Q: And the GI50 [44]?
A: > 100 µM (inactive)

Q: And the GI50 [45]?
A: > 100 µM (inactive)

Q: And the GI50 [46]?
A: > 100 µM (inactive)

Q: And the GI50 [47]?
A: > 100 µM (inactive)

Q: And the GI50 [48]?
A: > 100 µM (inactive)

Q: What about the GI50 [49] of the same compound?
A: > 100 µM (inactive)

Q: What about the GI50 [50] of the same compound?
A: > 100 µM (inactive)

Q: What about the GI50 [51] of the same compound?
A: > 100 µM (inactive)

Q: What about the GI50 [52] of the same compound?
A: > 100 µM (inactive)

Q: What does the source list for `O=c1[nH]cc(-c2c[nH]c3ccccc23)nc1-c1c[nH]c2ccccc12`?
A: GI50 [1]: 11.1 µM; GI50 [2]: 22.3 µM (inactive); GI50 [3]: 10.8 µM (inactive); GI50 [4]: 13 µM (inactive); GI50 [5]: 10.2 µM (inactive); GI50 [6]: 11.7 µM (inactive); GI50 [7]: 4.53 µM (inactive); GI50 [53]: 9.51 µM (inactive); GI50 [9]: 13 µM (inactive); GI50 [10]: 16.4 µM (inactive); GI50 [11]: 14.7 µM (inactive); GI50 [12]: 14.5 µM (inactive); GI50 [13]: 14.2 µM (inactive); GI50 [14]: 14.7 µM (inactive); GI50 [54]: 9.57 µM (inactive); GI50 [55]: 2.96 µM (inactive); GI50 [16]: 15.2 µM (inactive); GI50 [17]: 13.2 µM (inactive); GI50 [18]: 2.47 µM (inactive); GI50 [19]: 6.79 µM (inactive); GI50 [20]: 11.3 µM (inactive); GI50 [21]: 21 µM (inactive); GI50 [22]: 11.2 µM (inactive); GI50 [23]: 2.74 µM (inactive); GI50 [24]: 21 µM (inactive); GI50 [56]: 12.3 µM (inactive); GI50 [25]: 4.95 µM (inactive); GI50 [26]: 11.2 µM (inactive); GI50 [27]: 13.4 µM (inactive); GI50 [57]: 9.73 µM (inactive); GI50 [28]: 3.28 µM (inactive); GI50 [29]: 4.9 µM (inactive); GI50 [30]: 10.9 µM (inactive); GI50 [31]: 6.58 µM (inactive); GI50 [32]: 14.8 µM (inactive); GI50 [33]: 12.8 µM (inactive); GI50 [34]: 11.2 µM (inactive); GI50 [35]: 2.92 µM (inactive); GI50 [36]: 10.7 µM (inactive); GI50 [37]: 11.1 µM (inactive); GI50 [38]: 13.2 µM (inactive); GI50 [39]: 12.5 µM (inactive); GI50 [40]: 10.3 µM (inactive); GI50 [41]: 11.6 µM (inactive); GI50 [58]: 13.8 µM (inactive); GI50 [44]: 8.55 µM (inactive); GI50 [45]: 12.2 µM (inactive); GI50 [46]: 8.51 µM (inactive); GI50 [47]: 15.8 µM (inactive); GI50 [48]: 13.4 µM (inactive); GI50 [49]: 3.29 µM (inactive); GI50 [50]: 8.63 µM (inactive); GI50 [52]: 15.3 µM (inactive)
